Consider eight compounds from ChEMBL document CHEMBL1147209, “Relationship between quantum-chemical descriptors of proton dissociation and experimental acidity constants of various hydroxylated coumarins. Identification of the biologically active species for xanthine oxidase inhibition” (Eur J Med Chem, 2007).

The target in this data set is Xanthine dehydrogenase/oxidase (Homo sapiens, UniProt P47989). Nature of the data set: Inhibition of xanthine oxidase.
Chain of Xanthine dehydrogenase/oxidase (P47989 whole entry): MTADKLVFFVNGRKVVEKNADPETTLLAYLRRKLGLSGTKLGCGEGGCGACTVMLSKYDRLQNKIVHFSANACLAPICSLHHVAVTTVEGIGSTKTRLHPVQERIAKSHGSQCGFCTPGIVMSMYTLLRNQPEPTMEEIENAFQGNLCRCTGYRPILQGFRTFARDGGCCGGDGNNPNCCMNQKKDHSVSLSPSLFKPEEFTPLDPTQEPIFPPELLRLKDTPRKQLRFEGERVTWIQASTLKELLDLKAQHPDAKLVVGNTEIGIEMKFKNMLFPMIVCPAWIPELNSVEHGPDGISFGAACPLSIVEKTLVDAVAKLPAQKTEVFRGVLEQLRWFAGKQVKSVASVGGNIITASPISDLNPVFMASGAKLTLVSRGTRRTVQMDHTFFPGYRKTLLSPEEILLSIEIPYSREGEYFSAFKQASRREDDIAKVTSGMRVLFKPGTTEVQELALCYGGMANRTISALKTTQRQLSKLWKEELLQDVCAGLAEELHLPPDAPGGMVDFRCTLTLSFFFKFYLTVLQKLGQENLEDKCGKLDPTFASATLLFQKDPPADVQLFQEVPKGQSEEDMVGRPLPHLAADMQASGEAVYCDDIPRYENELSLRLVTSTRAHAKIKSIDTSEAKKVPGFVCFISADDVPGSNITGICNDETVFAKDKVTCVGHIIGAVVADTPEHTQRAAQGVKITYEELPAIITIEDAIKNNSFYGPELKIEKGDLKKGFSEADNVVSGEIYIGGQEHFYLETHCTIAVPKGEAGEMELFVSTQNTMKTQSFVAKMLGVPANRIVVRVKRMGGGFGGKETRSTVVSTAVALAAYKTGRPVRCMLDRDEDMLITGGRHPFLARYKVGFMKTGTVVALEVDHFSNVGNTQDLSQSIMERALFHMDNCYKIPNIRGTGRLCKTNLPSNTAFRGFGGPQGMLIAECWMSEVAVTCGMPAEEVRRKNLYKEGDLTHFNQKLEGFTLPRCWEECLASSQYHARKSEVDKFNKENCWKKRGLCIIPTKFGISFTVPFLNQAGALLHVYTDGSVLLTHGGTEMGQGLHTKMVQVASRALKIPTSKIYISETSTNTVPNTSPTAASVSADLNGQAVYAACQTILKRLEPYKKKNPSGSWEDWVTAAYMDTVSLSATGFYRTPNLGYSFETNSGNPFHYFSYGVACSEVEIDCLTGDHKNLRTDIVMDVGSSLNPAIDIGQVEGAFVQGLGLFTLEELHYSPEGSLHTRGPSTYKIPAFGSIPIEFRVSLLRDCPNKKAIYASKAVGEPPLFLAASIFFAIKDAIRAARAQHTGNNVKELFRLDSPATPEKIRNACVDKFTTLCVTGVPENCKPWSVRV

For orientation: IC50 means the point on the concentration scale where inhibition reaches its midpoint. A lower IC50 goes with greater potency in that assay. Turning to `O=c1oc2ccccc2cc1O` [3-HYDROXYCOUMARIN], the IC50 is 131 µM. On the same count and under the same terms, for `O=c1ccc2ccc(O)c(O)c2o1` [DAPHNETIN] the value was 390 µM. Regarding `O=c1cc(O)c2ccccc2o1` [4-HYDROXYCOUMARINS], half-maximal inhibition (IC50) was put at 195 µM.

`O=c1ccc2cc(O)c(O)cc2o1` [ESCULETIN] registered a half-inhibitory concentration (IC50) of 8.2 µM. For `O=c1ccc2ccc(O)cc2o1` [UMBELLIFERONE], the IC50 came to 236 µM. On the same count and under the same terms, with `COc1cc2oc(=O)ccc2cc1O` [ISOSCOPOLETIN] the figure was 138 µM; with `Cc1cc(=O)oc2cc(O)c(O)cc12` [4-METHYLESCULETIN], 246 µM. As to `COc1cc2ccc(=O)oc2cc1O` [SCOPOLETIN], the Activity entry was “Not Active”.
